Measurements published in US5525523A, “Binding method for FK-506- and rapamycin-like drugs with a novel immunophilin” (Children's Research Institute, priority 1994, dated 1996).

How the values were obtained:
FKBP-14.6 [1] = assay: Saturation binding of [^3 H]-dihydro FK-506 (LH-20 assay, Scatchard and Hill plots); parameters: species or system calf; conditions: for Kd: saturation, eight concentrations of labeled FK-506 (0.25-12 nM), read-out: Kd, single high affinity binding site
Experimental: (§1) Binding of [^3 H]-dihydro FK-506 to protein fractions was assessed using the LH-20 assay as described by Handschumacher et al., Science, 226:544 (1984). Briefly, in a final volume of 250 μl, labeled FK-506 (2-5.35 nM in EtOH) and 2-5 μg protein (200 μl) were preliminarily incubated, and the competition reaction begun by the addition of varying concentrations of unlabeled FK-506 or rapamycin. Following 20 minutes at room temperature, a 200 μl aliquot of the reaction mixture was filtered through a 1.8 mL bed-volume Sephadex LH-20 column equilibrated with 20 mM Tris buffer, pH 7.2, containing 5 mM 2-mercaptoethanol and 0.05 % NAN3. Elution with five 250 μL portions of the assay buffer separated protein-bound [^3 H]-dihydro FK-506 from free labeled drug (Sjovall et al., in Giddlings et al., Advances in Chromatography, Marcel Dekker, Inc., N.Y., vol. 6, pp. 119-170 (1968)). Radioactivity in the 1.25 mL eluate was measured by liquid scintillation spectrometry (Optima Gold Scintillation cocktail, Packard Chemicals, Meriden, Conn.) operating at 59% efficiency. Non-specific binding was estimated by the addition of 1 μM unlabeled FK-506, which displaced ≥95% of the bound radioligand from binding sites.
To obtain binding site information for the FKBP-14.6 protein, Scatchard plots were obtained in saturation experiments using eight concentrations of labeled FK-506 (0.25-12 nM) in triplicate (FIG. 4A). In FIG. 4A, specific binding is shown by (-.cndot.-.cndot.-) and non-specific binding by (- - -). Data were analyzed with the EBDA and Ligand Corporation programs.

FKBP-14.6 [2] = assay: Competition binding against [^3 H]-dihydro FK-506 (LH-20 assay); parameters: species or system calf; conditions: for Kd: 6 nM [^3 H]-dihydro FK-506, rapamycin 0.1 nM-1 μM, 0.2% Tween-20, 50% receptor occupation
Experimental: as §1
To determine if rapamycin interacted with FK-506's binding site on FKBP-14.6, competition studies were carried out using 6 nM [^3 H]-dihydro FK-506 and 8 concentrations of rapamycin (0.1 nM-1 μM) in a buffer containing 0.2% Tween-20. Unlabeled FK-506 (1 μM) was used to define nonspecific binding.

[3H]CC([3H])C[C@@H]1/C=C(\C)C[C@H](C)C[C@H](OC)[C@H]2O[C@@](O)(C(=O)C(=O)N3CCCC[C@H]3C(=O)O[C@H](/C(C)=C/[C@@H]3CC[C@@H](O)[C@H](OC)C3)[C@H](C)[C@@H](O)CC1=O)[C@H](C)C[C@@H]2OC (some centres unmarked) [[^3 H]-dihydro FK-506]
Hill coefficients (FKBP-14.6 [1]; saturation experiments, single class of binding sites): near unity

CCC[C@@H]1/C=C(\C)C[C@H](C)C[C@H](OC)[C@H]2O[C@@](O)(C(=O)C(=O)N3CCCC[C@H]3C(=O)O[C@H](/C(C)=C/[C@@H]3CC[C@@H](O)[C@H](OC)C3)[C@H](C)[C@@H](O)CC1=O)[C@H](C)C[C@@H]2OC [[^3 H]-dihydro FK-506]
Kd (FKBP-14.6 [1]; purified 14.6 kDa protein, listed as [^3 H]-FK-506): ~1.77 nM | Kd (FKBP-14.6 [1]; purified 14.6 kDa protein): 1.77 nM

CO[C@H]1C[C@@H]2CC[C@@H](C)[C@@](O)(O2)C(=O)C(=O)N2CCCC[C@H]2C(=O)O[C@H]([C@H](C)C[C@@H]2CC[C@@H](O)[C@H](OC)C2)CC(=O)[C@H](C)/C=C(\C)[C@@H](O)[C@@H](OC)C(=O)[C@H](C)C[C@H](C)/C=C/C=C/C=C/1C [Rapamycin]
displacement of [^3 H]-dihydro FK-506 (manner) (FKBP-14.6 [2]; 6 nM [^3 H]-dihydro FK-506, 8 concentrations of rapamycin): biphasic manner | Kd (FKBP-14.6 [2]; read-out: Kd, high affinity binding site): 0.023 nM | Kd (FKBP-14.6 [2]; read-out: Kd, low affinity binding site): 226 nM

C=CC[C@@H]1/C=C(\C)C[C@H](C)C[C@H](OC)[C@H]2O[C@@](O)(C(=O)C(=O)N3CCCC[C@H]3C(=O)O[C@H](/C(C)=C/[C@@H]3CC[C@@H](O)[C@H](OC)C3)[C@H](C)[C@@H](O)CC1=O)[C@H](C)C[C@@H]2OC [FK-506]
bound radioligand displaced from binding sites (FKBP-14.6 [2]; 1 μM unlabeled FK-506, 20 min): ≥ 95% | binding site Bmax (FKBP-14.6 [1]; Scatchard analysis, purified 14.6 kDa protein): about 67 nmoles/mg protein
